In patent publication US20250194599A1, “PESTICIDE FORMULATIONS” (FMC CORPORATION, priority 2022, published 2025):

How the values were obtained:
Assay type in all cases: in vivo
Cydia pomonella [1] = assay: Field trial Example 1: fruit damage counts, 1000 fruit per plot, apple orchards; conditions: Trial 4 (highest codling moth infestation), apple orchard, Argentina; programs of Table 1; letters = significantly different groups (Chi-square)
Description: (§1) A field trial was conducted in Argentina to determine the effect of blending codling moth pheromone, (E,E)-8,10-dodecadien-1-ol, with chlorantraniliprole for control of coding moth population in apple orchards. The first flight of codling moth was targeted, at which time standard grower treatment pheromone dispensers had been placed in the respective fields. Applications of the chlorantraniliprole or chlorantraniliprole+pheromone were timed when eggs were expected to hatch.
(§2) Treatment programs comprising nine tracts of land across three farms were performed (see FIGS. 1A-C). SC=suspension concentrate; VP=vapor releasing product; WG=water-dispersible granules.
(§3) In brief, one treatment program was performed using an application of pheromone alone at 90 DD followed by applications of chlorantraniliprole plus pheromone at 250 DD and 250DD+21 days, respectively. A separate treatment was performed by applying chlorantraniliprole alone at 250 DD and 250DD+21 days. […]
(§4) Treatment effects were determined by conducting fruit damage counts prior to second generation flights by evaluating 1000 fruit in each plot for codling moth damage. […] The bands were removed during the second week of January, taken to the lab and counted.

Cydia pomonella [2] = assay: Field trial Example 1: pupae counts in corrugated cardboard tree bands on 100 trees; conditions: Trial 4 (highest infestation), programs of Table 1
Description: as §1, §2, §3, §4

Cydia pomonella [3] = assay: Field trial Example 2: larva per hectare captured from corrugated cardboard traps in 100 trees; conditions: treatments of Table 4, FIG. 6
Description: (§5) A field trial was conducted in Argentina to evaluate the efficacy of chlorantraniliprole in combination with a kairomone, ethyl (2E,4Z)-2,4-decadienoate, to improve Cydia pomonella control in foliar application of apple (Malus domestica) compared to the efficacy of chlorantraniliprole alone and kairomone alone. SC=suspension concentrate; CS=capsule suspension
(§6) Efficacy of the trial was evaluated by (1) comparing the number of damaged fruit across the treatment groups; and (2) comparing the larva captured per hectare that were captured from corrugated cardboard traps settled in 100 trees. As shown in FIGS. 4-5, there was a significant difference in damaged fruits treatments that included chlorantraniliprole+kairomone compared to fruits treated with only chlorantraniliprole.

Cydia pomonella [4] = assay: Field trial Example 2: number of damaged fruit across treatment groups, apple; conditions: Example 2, foliar application, treatments of Table 4, FIGS. 4-5
Description: as §5, §6

| SMILES | # Damaged Fruit/ 1000 fruit (Cydia pomonella [1]) [c] | # of Pupae Found (Cydia pomonella [2]) | larva per hectare captured in corrugated cardboard traps (Cydia pomonella [3]) | damaged fruits out of 1000 fruits per treatment (Cydia pomonella [4]) |
| --- | --- | --- | --- | --- |
| CNC(=O)c1cc(Cl)cc(C)c1NC(=O)c1cc(Br)nn1-c1ncccc1Cl [Chlorantraniliprole Alone, 3-bromo-N-(4-chloro-2-methyl-6-(methylcarbamoyl)phenyl)-1-(3-chloropyridin-2-yl)-1H-pyrazole-5-carboxamide] | 39 | 1782 | – | – |
| CCCCC/C=C\C=C\C(=O)OCC [Kairomone, ethyl (2E,4Z)-2,4-decadienoate] | – | – | larva per hectare significantly higher compared to all other treatments | number of damaged fruits significantly higher compared to all other treatments |
